According to article PMC11729419, “Thiol-Reactive or Redox-Active: Revising a Repurposing Screen Led to a New Invalidation Pipeline and Identified a True Noncovalent Inhibitor Against Papain-like Protease from SARS-CoV-2” (ACS Pharmacology & Translational Science, 2024):
Structures can show the parent of a compound that is named as a salt. Where two headings read alike, the source gives them in different places.

Target: SARS-CoV-2 PLpro-NAB (Severe acute respiratory syndrome coronavirus 2, UniProt P0DTD1)
Experiment: biochemical
Conditions: for Inhibitory activity on retest in 1 mM L-cysteine: 50% inhibition at 20 μM
[1] = Table S1, 20 µM, DTT buffer, average (SD)
[2] = Table S1, 20 µM, L-cysteine buffer, average (SD)
[3] = Table S1, DTT buffer, read-out: HP PLpro-NAB SARS-CoV-2 IC50 [µM] triplicates DTT BUFFER
[4] = Table S1, L-cysteine buffer, read-out: HP PLpro-NAB SARS-CoV-2 IC50 [µM] duplicates L-CYS BUFFER
[5] = Table S1, 20 µM, DTT buffer, average (SD), read-out: HC PLpro-NAB SARS-CoV-2 inhibition [%] 20 µM triplicates DTT BUFFER
[6] = Table S1, 20 µM, L-cysteine buffer, average (SD), read-out: HP PLpro-NAB SARS-CoV-2 inhibition [%] 20 µM triplicates L-CYS BUFFER
[7] = hit confirmation, 20 μM, 1 mM DTT buffer, average (SD), 20 μM PR619 = 100%, DMSO = 0%
[8] = hit profiling, 20 μM, 1 mM L-cys buffer, average (SD), 20 μM PR619 = 100%
[9] = read-out: HP PLpro-NAB IC50 [μM] duplicates 1 mM L-cys buffer, hit profiling, 1 mM L-cys buffer
[10] = read-out: HP PLpro-NAB IC50 [μM] triplicates 1 mM DTT buffer, hit profiling, 1 mM DTT buffer

C[n+]1c2cc(N)ccc2cc2ccc(N)cc21.[Cl-] [Acriflavinium Hydrochloride]
HC PLpro-NAB SARS-CoV-2 inhibition [%] 20 µM triplicates DTT BUFFER [1]: 27.57 (6.10) % | HP PLpro-NAB SARS-CoV-2 inhibition [%] 20 µM triplicates L-CYS BUFFER [2]: -99.55 (4.20) % | IC50 [3]: 12.4 µM | IC50 [4]: > 20 µM

CC(C)Nc1cccnc1N1CCN(C(=O)c2cc3cc(NS(C)(=O)=O)ccc3[nH]2)CC1 [Delavirdine (mesylate), Delavirdine]
IC50 (HP PLpro-NAB SARS-CoV-2 IC50 [µM] duplicates L-CYS BUFFER): > 20 µM | IC50 (HP PLpro-NAB SARS-CoV-2 IC50 [µM] triplicates DTT BUFFER): > 20 µM

Cc1cc(-c2ccc(/N=N/c3ccc4c(S(=O)(=O)O)cc(S(=O)(=O)O)c(N)c4c3O)c(C)c2)ccc1/N=N/c1ccc2c(S(=O)(=O)O)cc(S(=O)(=O)O)c(N)c2c1O [Evans Blue]
inhibition at 20 µM [5]: 126% | inhibition at 20 µM [6]: -67.8% | IC50 [3]: 8.68 µM | IC50 [4]: > 20 µM

Cc1nc2c(=O)n(C)c(=O)nc-2n(C)n1 [3-Methyl Toxoflavin]
HC PLpro-NAB SARS-CoV-2 inhibition [%] 20 µM triplicates DTT BUFFER [1]: 181.38 (6.76) % | HP PLpro-NAB SARS-CoV-2 inhibition [%] 20 µM triplicates L-CYS BUFFER [2]: -26.71 (3.86) % | IC50 [3]: 0.074 µM | IC50 [4]: > 20 µM

O=C1C(=O)c2ccccc2-c2ccccc21 [9,10-Phenanthrenequinone]
inhibition at 20 µM [6]: -40.8% | IC50 [4]: > 20 µM

Bacitracin [Bacitracin (Zinc)]
HC PLpro-NAB SARS-CoV-2 inhibition [%] 20 µM triplicates DTT BUFFER [1]: 67.28 (8.42) % | HP PLpro-NAB SARS-CoV-2 inhibition [%] 20 µM triplicates L-CYS BUFFER [2]: 6.99 (8.69) % | IC50 [3]: 10.2 µM | IC50 [4]: > 20 µM

Oc1c(Cl)cc(Cl)c(Cl)c1Cc1c(O)c(Cl)cc(Cl)c1Cl [Hexachlorophene]
IC50 (HP PLpro-NAB SARS-CoV-2 IC50 [µM] duplicates L-CYS BUFFER, Table S1, L-cysteine buffer): > 20 µM | IC50 (HP PLpro-NAB SARS-CoV-2 IC50 [µM] triplicates DTT BUFFER, Table S1, DTT buffer): > 20 µM | inhibition at 20 µM (read-out: HC PLpro-NAB SARS-CoV-2 inhibition [%] 20 µM triplicates DTT BUFFER): 109% | inhibition at 20 µM (read-out: HP PLpro-NAB SARS-CoV-2 inhibition [%] 20 µM triplicates L-CYS BUFFER): -18.3%

COc1cccc2c(NCc3ccccc3)nc(-n3c(N)nc4ccccc43)nc12 [ML240]
HC PLpro-NAB SARS-CoV-2 inhibition [%] 20 µM triplicates DTT BUFFER [1]: 93.76 (13.43) % | HP PLpro-NAB SARS-CoV-2 inhibition [%] 20 µM triplicates L-CYS BUFFER [2]: -11.93 (4.14) % | IC50 [3]: > 20 µM | IC50 [4]: > 20 µM

CCOC(=O)C1=C(C)N=c2sc(=Cc3ccc(OCC(=O)O)cc3)c(=O)n2C1c1ccc(SC)cc1 (centres unmarked) [ML120]
HC PLpro-NAB SARS-CoV-2 inhibition [%] 20 µM triplicates DTT BUFFER [1]: 82.78 (2.58) % | HP PLpro-NAB SARS-CoV-2 inhibition [%] 20 µM triplicates L-CYS BUFFER [2]: -56.07 (10.54) % | IC50 [3]: 3.14 µM | IC50 [4]: > 20 µM

CC1(C)C(=O)N=C2C1=C(O)C(=O)c1ccccc12 [BVT-948]
HC PLpro-NAB SARS-CoV-2 inhibition [%] 20 µM triplicates DTT BUFFER [1]: 154.88 (0.27) % | HP PLpro-NAB SARS-CoV-2 inhibition [%] 20 µM triplicates L-CYS BUFFER [2]: -16.22 (16.3) % | IC50 [3]: 0.39 µM | IC50 [4]: > 20 µM

SF1670
HC PLpro-NAB SARS-CoV-2 inhibition [%] 20 µM triplicates DTT BUFFER [1]: 183.62 (4.27) % | HP PLpro-NAB SARS-CoV-2 inhibition [%] 20 µM triplicates L-CYS BUFFER [2]: -32.73 (4.18) % | IC50 [3]: 0.25 µM | IC50 [4]: > 20 µM

O=c1ccc2[n+]([O-])c3ccc(O)cc3oc-2c1 [Resazurin (sodium salt), Resazurin]
IC50 [3]: > 20 µM | IC50 [4]: > 20 µM

CN(C)CCNc1nc2cc(O)ccc2c2c1C(=O)c1ccccc1-2.Cl.Cl [TAS-103 (dihydrochloride)]
HC PLpro-NAB SARS-CoV-2 inhibition [%] 20 µM triplicates DTT BUFFER [1]: 154.91 (1.47) % | HP PLpro-NAB SARS-CoV-2 inhibition [%] 20 µM triplicates L-CYS BUFFER [2]: 17.75 (9.12) % | IC50 [3]: 5.94 µM | IC50 [4]: > 20 µM

Cn1cccc1/C=C1\C(=O)NC(=O)c2ccccc21 [BYK-204165]
HC PLpro-NAB SARS-CoV-2 inhibition [%] 20 µM triplicates DTT BUFFER [1]: 137.58 (2.88) % | HP PLpro-NAB SARS-CoV-2 inhibition [%] 20 µM triplicates L-CYS BUFFER [2]: 7.10 (11.9) % | IC50 [3]: 6.17 µM | IC50 [4]: > 20 µM

O=C1C=CC(=O)c2c(O)cccc21 [Juglone]
inhibition at 20 µM [5]: 83.7% | inhibition at 20 µM [6]: -14.8% | IC50 [3]: > 20 µM | IC50 [4]: > 20 µM

CC[n+]1c(-c2ccccc2)c2cc(N)ccc2c2ccc(N)cc21 [Homidium Bromide]
inhibition at 20 µM [5]: 149% | inhibition at 20 µM [6]: 18.3% | IC50 [3]: 13.7 µM | IC50 [4]: > 20 µM

O=C(O)c1cc(O)c2c(c1)[C@H]([C@H]1c3cc(C(=O)O)cc(O)c3C(=O)c3c(O[C@@H]4O[C@H](CO)[C@@H](O)[C@H](O)[C@H]4O)cccc31)c1cccc(O[C@@H]3O[C@H](CO)[C@@H](O)[C@H](O)[C@H]3O)c1C2=O [sennoside A]
inhibition at 20 µM (hit confirmation, 20 μM, 1 mM DTT buffer, average (SD), 20 μM PR619 = 100%, DMSO = 0%, read-out: HC PLpro-NAB inhibition [%] 20 μM triplicates 1 mM DTT buffer): 160% | inhibition at 20 µM (hit profiling, 20 μM, 1 mM L-cys buffer, average (SD), 20 μM PR619 = 100%, read-out: HP PLpro-NAB inhibition [%] 20 μM triplicates 1 mM L-cys buffer): 149%

COCCn1c2c([n+](Cc3cnccn3)c1C)C(=O)c1ccccc1C2=O [YM-155]
inhibition at 20 µM [5]: 139% | inhibition at 20 µM [6]: -5.61% | IC50 [3]: 17.9 µM | IC50 [4]: > 20 µM

C[C@H]1COC2=C1C(=O)C(=O)c1c2ccc2c1CCCC2(C)C [Cryptotanshinone]
inhibition at 20 µM [5]: 40.7% | inhibition at 20 µM [6]: -71.4%

NC(Cc1cc(O)c(O)cc1O)C(=O)O (racemic) [6-Hydroxy-DL-DOPA]
HC PLpro-NAB SARS-CoV-2 inhibition [%] 20 µM triplicates DTT BUFFER [1]: 81.47 (1.21) % | HP PLpro-NAB SARS-CoV-2 inhibition [%] 20 µM triplicates L-CYS BUFFER [2]: 4.81 (4.61) % | IC50 [3]: > 20 µM | IC50 [4]: > 20 µM

CC[N+](C)(CC)CCC[n+]1c(-c2ccccc2)c2cc(N)ccc2c2ccc(N)cc21.[I-].[I-] [Propidium-Iodide]
HC PLpro-NAB SARS-CoV-2 inhibition [%] 20 µM triplicates DTT BUFFER [1]: 135.55 (3.03) % | HP PLpro-NAB SARS-CoV-2 inhibition [%] 20 µM triplicates L-CYS BUFFER [2]: 14.90 (7.41) % | IC50 [3]: 0.24 µM | IC50 [4]: > 20 µM

N#CSc1cc(SC#N)c(N)nc1N [PR-619]
Inhibition in L-cysteine buffer versus DTT buffer (dose-response) (1 mM L-cysteine vs 1 mM DTT): did not show variations in inhibition potency or thermal stability | Inhibitory activity on retest in 1 mM L-cysteine: retained their inhibitory activity | HC PLpro-NAB inhibition [%] 20 μM triplicates 1 mM DTT buffer [7]: 101.31 (1.54) % | HP PLpro-NAB inhibition [%] 20 μM triplicates 1 mM L-cys buffer [8]: 106.60 (1.05) % | IC50 [9]: 3.7 µM | IC50 [10]: 1.39 µM

Ryuvidine
HC PLpro-NAB SARS-CoV-2 inhibition [%] 20 µM triplicates DTT BUFFER [1]: 159.90 (1.27) % | HP PLpro-NAB SARS-CoV-2 inhibition [%] 20 µM triplicates L-CYS BUFFER [2]: -33.69 (4.70) % | IC50 [3]: 0.26 µM | IC50 [4]: > 20 µM

Cc1cccc2c3c(ccc12)C1=C(C(=O)C3=O)[C@@H](C)CO1 [Dihydrotanshinone I]
inhibition at 20 µM [5]: 80.7% | inhibition at 20 µM [6]: -176% | IC50 [3]: 0.92 µM | IC50 [4]: > 20 µM

Cc1cc(-c2ccc(/C=C3/SC(=Nc4ccc(Cl)c(C(=O)O)c4)NC3=O)o2)c([N+](=O)[O-])cc1C [PT 1]
HC PLpro-NAB SARS-CoV-2 inhibition [%] 20 µM triplicates DTT BUFFER [1]: 87.07 (2.59) % | HP PLpro-NAB SARS-CoV-2 inhibition [%] 20 µM triplicates L-CYS BUFFER [2]: -36.09 (5.10) % | IC50 [3]: 9.32 µM | IC50 [4]: > 20 µM

CC1(C)CCC2=C(O1)c1ccccc1C(=O)C2=O [Beta-Lapachone]
inhibition at 20 µM [5]: 175% | inhibition at 20 µM [6]: -37.4% | IC50 [3]: 4.71 µM | IC50 [4]: > 20 µM

COc1cc([C@@H]2c3cc4c(cc3[C@@H](O[C@@H]3O[C@@H]5CO[C@@H](C)O[C@H]5[C@H](O)[C@H]3O)[C@H]3COC(=O)[C@H]23)OCO4)cc(OC)c1O [Etoposide]
IC50 [3]: > 20 µM | IC50 [4]: > 20 µM

Ro-08-2750
HC PLpro-NAB SARS-CoV-2 inhibition [%] 20 µM triplicates DTT BUFFER [1]: 119.29 (1.83) % | HP PLpro-NAB SARS-CoV-2 inhibition [%] 20 µM triplicates L-CYS BUFFER [2]: -33.99 (8.82) % | IC50 [3]: 0.4 µM | IC50 [4]: > 20 µM

O=C(Nc1ccccc1-c1cn2c(CN3CCNCC3)csc2n1)c1cnc2ccccc2n1 [SRT 1720]
Inhibitory activity on retest in 1 mM L-cysteine: retained their inhibitory activity | HC PLpro-NAB inhibition [%] 20 μM triplicates 1 mM DTT buffer [7]: 109.60 (16.57) % | HP PLpro-NAB inhibition [%] 20 μM triplicates 1 mM L-cys buffer [8]: 169.11 (0.11) % | IC50 [9]: 0.82 µM | IC50 [10]: > 20 µM
